Experiments:
KRas G12D = KRas G12D (Homo sapiens, UniProt P01116, G12D); experiment: KRas G12D Binding Assay (TR-FRET displacement of labeled tracer); design: corresponding to amino acids 1:169, produced at Array BioPharma; biotin (protein is biotinylated); details: TR-FRET displacement of Cy5 labelled tracer, biotinylated GDP-loaded KRAS G12D (aa 1:169), 60 minute incubation at 22° C.
Experimental: This Example illustrates that exemplary compounds of the present invention bind to KRas G12D and are capable of displacing a labeled tracer ligand occupying the KRas G12D binding site.
The ability of a compound to bind to KRAS G12D was measured using a TR-FRET displacement assay. Biotinylated GDP-loaded recombinant human KRAS G12D (corresponding to amino acids 1:169, produced at Array BioPharma) was incubated with a custom-made Cy5 labelled tracer, europium labelled streptavidin and compound (2% DMSO final) in buffer (50 mM HEPES [pH 7.5], 5 mM MgCl2, 0.005% Tween-20 & 1 mM DTT). After a 60 minute incubation at 22° C., the reaction was measured using a PerkinElmer EnVision multimode plate reader via TR-FRET dual wavelength detection, and the percent of control (POC) calculated using a ratiometric emission factor. […] The POC values were fit to a 4-parameter logistic curve and the IC50 value was determined as the concentration where the curve crosses 50 POC.

[1] = tested on: KRas G12D-mediated Phosphorylation of ERK; experiment: Inhibition of KRas G12D-mediated Phosphorylation of ERK in AGS cells; format: cell-based; details: Homo sapiens; AGS cells expressing G12D, 3 hours, phospho-ERK normalized to GAPDH
Experimental: AGS cells (ATCC CRL-1739) expressing G12D were grown in DMEM medium supplemented with 10% fetal bovine serum, 10 mM HEPES, and Penicillin/Streptomycin. Cells were plated in tissue culture treated 96 well plates at a density of 40,000 cells/well and allowed to attach for 12-14 hours. Diluted compounds were then added in a final concentration of 0.5% DMSO. After 3 hours, the medium was removed, 150 μl of 4.0% formaldehyde was added and the plates incubated at room temperature for 20 minutes. The plates were washed with PBS, and permeabilized with 150 μL of ice cold 100% methanol for 10 minutes. Non-specific antibody binding to the plates was blocked using 100 μL Licor blocking buffer (Li-Cor Biotechnology, Lincoln NE) for 1 hour at room temperature.
The amount of phospho-ERK was determined using an antibody specific for the phosphorylated form of ERK and compared to the amount of GAPDH. Primary antibodies used for the detection were added as follows: Phospho-ERK(Cell Signaling cs-9101) diluted 1:500 and GAPDH(Millipore MAB374) diluted 1:5000 in Licor block+0.05% Tween 20. The plates were incubated for 2 hours at room temperature. The plates were washed with PBS+0.05% Tween 20.
Secondary antibodies used to visualize primary antibodies were added as follows: Anti-rabbit-680 diluted 1:1000 and Anti-mouse-800 diluted 1:1000 both in Licor block+0.05% Tween20, and were incubated for 1 hour at room temperature. The plates were washed with PBS+0.05% Tween 20. A 100 μl aliquot of PBS was added to each well and the plates were read on a Li-Cor Odyssey CLX plate reader.
The phospho-ERK(Thr202/Tyr204 signal was normalized to the GAPDH signal for each well and percent of DMSO control values were calculated. IC50 values were generated using a 4-parameter fit of the dose response curve.

KRas G12D, sequence (P01116 1-169 isoform P01116-2 G12D): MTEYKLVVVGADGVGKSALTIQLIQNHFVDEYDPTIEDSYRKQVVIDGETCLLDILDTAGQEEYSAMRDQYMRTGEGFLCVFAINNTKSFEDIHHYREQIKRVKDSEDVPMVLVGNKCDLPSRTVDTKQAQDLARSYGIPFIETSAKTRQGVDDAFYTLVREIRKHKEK

Structure (SMILES)	IC50 (KRas G12D) [nM]	IC50 [1] [nM]
CCc1c(F)ccc2cccc(N3CCc4c(nc(OCC56CCCN5C[C@H](F)C6)nc4N4CC5CCC(C4)N5)C3)c12 (mixture of isomers) [Example 20, 4-((1R,5S)-3,8-diazabicyclo[3.2.1]octan-3-yl)-7-(8-ethyl-7-fluoronaphthalen-1-yl)-2-((2-fluorotetrahydro-1H-pyrrolizin-7a(5H)-yl)methoxy)-5,6,7,8-tetrahydropyrido[3,4-d]pyrimidine (racemic, trans)]	2.8	539
c1ccc2c(N3CCc4c(nc(OCC56CCCN5CCC6)nc4N4C[C@H]5CC[C@@H](C4)N5)C3)cccc2c1 [Example 114, 4-((1R,5S)-3,8-diazabicyclo[3.2.1]octan-3-yl)-2-((hexahydro-1H-pyrrolizin-7a-yl)methoxy)-7-(naphthalen-1-yl)-5,6,7,8-tetrahydropyrido[3,4-d]pyrimidine]	34.2	> 16700
Oc1cc(N2CCc3c(nc(OCC45CCCN4CCC5)nc3N3C[C@H]4CC[C@@H](C3)N4)C2)c2c(Cl)c(F)ccc2c1 [Example 116, 4-(4-((1R,5S)-3,8-diazabicyclo[3.2.1]octan-3-yl)-2-((hexahydro-1H-pyrrolizin-7a-yl)methoxy)-5,6-dihydropyrido[3,4-d]pyrimidin-7(8H)-yl)-5-chloro-6-fluoronaphthalen-2-ol]	0.5	46
CNC(=O)OCC1CCC2(COc3nc4c(c(N5C[C@H]6CC[C@@H](C5)N6)n3)CCN(c3cccc5cccc(Cl)c35)C4)CCCN12 (mixture of isomers) [Example 100, (7a-(((4-((1R,5S)-3,8-diazabicyclo[3.2.1]octan-3-yl)-7-(8-chloronaphthalen-1-yl)-5,6,7,8-tetrahydropyrido[3,4-d]pyrimidin-2-yl)oxy)methyl)hexahydro-1H-pyrrolizin-3-yl)methyl methylcarbamate]	9.7	1310
CCc1cccc2cc(O)cc(N3CCc4c(nc(OCC56CCCN5C(CF)CC6)nc4N4CC5CCC(C4)N5)C3)c12 (mixture of isomers) [Example 23, 4-(4-((1R,5S)-3,8-diazabicyclo[3.2.1]octan-3-yl)-2-((3-(fluoromethyl)tetrahydro-1H-pyrrolizin-7a(5H)-yl)methoxy)-5,8-dihydropyrido[3,4-d]pyrimidin-7(6H)-yl)-5-ethylnaphthalen-2-ol (mixture or isomers)]	1.1	119
F[C@H]1CN2CCCC2(COc2nc3c(c(N4CC5CCC(C4)N5)n2)CCN(c2cccc4cccc(Cl)c24)C3)C1 (mixture of isomers) [Example 46, 4-((1R,5S)-3,8-diazabicyclo[3.2.1]octan-3-yl)-7-(8-chloronaphthalen-1-yl)-2-((2-fluorotetrahydro-1H-pyrrolizin-7a(5H)-yl)methoxy)-5,6,7,8-tetrahydropyrido[3,4-d]pyrimidine]	4.4	4570
CCc1c(F)ccc2cccc(N3CCc4c(nc(OC[C@]56CCCN5[C@@H](COC(=O)N5CCOCC5)CC6)nc4N4C[C@H]5CC[C@@H](C4)N5)C3)c12 [Example 98, ((3R,7aR)-7a-(((4-((1R,5S)-3,8-diazabicyclo[3.2.1]octan-3-yl)-7-(8-ethyl-7-fluoronaphthalen-1-yl)-5,6,7,8-tetrahydropyrido[3,4-d]pyrimidin-2-yl)oxy)methyl)hexahydro-1H-pyrrolizin-3-yl)methyl morpholine-4-carboxylate]	0.7	50
CCc1cccc2cccc(N3CCc4c(nc(OCC56CCCN5C(COC(=O)N5CCS(=O)(=O)CC5)CC6)nc4N4C[C@H]5CC[C@@H](C4)N5)C3)c12 (mixture of isomers) [Example 67, (7a-(((4-((1R,5S)-3,8-diazabicyclo[3.2.1]octan-3-yl)-7-(8-ethylnaphthalen-1-yl)-5,6,7,8-tetrahydropyrido[3,4-d]pyrimidin-2-yl)oxy)methyl)hexahydro-1H-pyrrolizin-3-yl)methyl thiomorpholine-4-carboxylate 1,1-dioxide]	1.5	150
CN(C)C(=O)OC[C@H]1CCC2(COc3nc4c(c(N5CC6CCC(C5)N6)n3)CCN(c3cccc(Cl)c3C3CC3)C4)CCCN12 (stereo partly drawn) [Example 33, (7a-(((4-((1R,5S)-3,8-diazabicyclo[3.2.1]octan-3-yl)-7-(3-chloro-2-cyclopropylphenyl)-5,6,7,8-tetrahydropyrido[3,4-d]pyrimidin-2-yl)oxy)methyl)hexahydro-1H-pyrrolizin-3-yl)methyl dimethylcarbamate (trans enantiomers)]	50.2	5560
F[C@H]1CN2CCCC2(COc2nc3c(c(N4CC5CCC(C4)N5)n2)CCN(c2cccc4cccc(C(F)(F)F)c24)C3)C1 (mixture of isomers) [Example 51, 4-((1R,5S)-3,8-diazabicyclo[3.2.1]octan-3-yl)-2-((2-fluorotetrahydro-1H-pyrrolizin-7a(5H)-yl)methoxy)-7-(8-(trifluoromethyl)naphthalen-1-yl)-5,6,7,8-tetrahydropyrido[3,4-d]pyrimidine]	16.9	> 16700
CCc1cccc2cccc(N3CCc4c(nc(OCC56CCCN5C(COC(=O)N5CC[C@H](O)C5)CC6)nc4N4C[C@H]5CC[C@@H](C4)N5)C3)c12 (stereo partly drawn) [Example 105, (7a-(((4-((1R,5S)-3,8-diazabicyclo[3.2.1]octan-3-yl)-7-(8-ethylnaphthalen-1-yl)-5,6,7,8-tetrahydropyrido[3,4-d]pyrimidin-2-yl)oxy)methyl)hexahydro-1H-pyrrolizin-3-yl)methyl (3S)-3-hydroxypyrrolidine-1-carboxylate]	2.3	561
CCc1cccc2cccc(N3CCc4c(nc(OC[C@@]56CCCN5C[C@H](F)C6)nc4[C@H]4C[C@H]5CC[C@@H](C4)N5)C3)c12 [Example 121, 4-((1R,3r,5S)-8-azabicyclo[3.2.1]octan-3-yl)-7-(8-ethylnaphthalen-1-yl)-2-(((2R,7aS)-2-fluorotetrahydro-1H-pyrrolizin-7a(5H)-yl)methoxy)-5,6,7,8-tetrahydropyrido[3,4-d]pyrimidine]	8.7	2360
F[C@H]1CN2CCCC2(COc2nc3c(c(N4CC5CCC(C4)N5)n2)CCN(c2cccc4cccc(C5CC5)c24)C3)C1 (mixture of isomers) [Example 11]	19.8	> 16700
CCc1cccc2cccc(N3CCc4c(nc(OC[C@]56CCCN5[C@@H](COC(=O)NC)CC6)nc4N4C[C@H]5CC[C@@H](C4)N5)C3)c12 [Example 18, ((3R,7aR)-7a-(((4-((1R,5S)-3,8-diazabicyclo[3.2.1]octan-3-yl)-7-(8-ethylnaphthalen-1-yl)-5,6,7,8-tetrahydropyrido[3,4-d]pyrimidin-2-yl)oxy)methyl)hexahydro-1H-pyrrolizin-3-yl)methyl methylcarbamate]	2	70
CCc1c(F)ccc2cccc(N3CCc4c(nc(OCC56CCCN5CCC6)nc4N4C[C@H]5CC[C@@H](C4)N5)C3)c12 [Example 19, 4-((1R,5S)-3,8-diazabicyclo[3.2.1]octan-3-yl)-7-(8-ethyl-7-fluoronaphthalen-1-yl)-2-((tetrahydro-1H-pyrrolizin-7a(5H)-yl)methoxy)-5,6,7,8-tetrahydropyrido[3,4-d]pyrimidine]	1.8	324
CCc1cccc2cccc(N3CCc4c(nc(OCC56CCCN5C(CO)CC6)nc4N4C[C@H]5CC[C@@H](C4)N5)C3)c12 (mixture of isomers) [Example 103, (7a-(((4-((1R,5S)-3,8-diazabicyclo[3.2.1]octan-3-yl)-7-(8-ethylnaphthalen-1-yl)-5,6,7,8-tetrahydropyrido[3,4-d]pyrimidin-2-yl)oxy)methyl)hexahydro-1H-pyrrolizin-3-yl)methanol]	3.9	6220

Source: patent US12686692B2, “KRas G12D inhibitors” (Mirati Therapeutics, Inc., priority 2020, dated 2026)
